This is an account of results in article PMC9140716, “Light-Control over Casein Kinase 1δ Activity with Photopharmacology: A Clear Case for Arylazopyrazole-Based Inhibitors” (International Journal of Molecular Sciences, 2022).

Where two headings read alike, the source gives them in different places.

Data set [1] has as its target T1, CK1δ (Homo sapiens, UniProt P48730). Kind of data set: In vitro kinase assay (ATP consumption, Kinase Glo), 'dark' and UV-irradiated 'light' samples. Format: biochemical. The following applies: for degree of CK1δ inhibition reached in dose-response curve: 'light' and/or 'dark' samples; for difference in activity (potency) between 'light' and 'dark' states: irradiated (365 nm) vs thermally adapted sample, 'light' more potent. As for the experimental part: After evaluating the photochemical properties of the three photoswitches DK398, DK518, and DK557 in detail, an in vitro kinase activity assay was performed. In this assay, the inhibitory activity towards CK1δ of both dark (all-trans) and irradiated (cis-enriched) samples was evaluated to construct dose–response curves for both states. During the enzymatic reaction (2 h), samples were either kept in the dark or irradiated with UV light (λmax = 365 nm). UV light irradiation itself was confirmed to have no effect on CK1δ activity (Figure S9). After the enzymatic reaction, ATP consumption was measured to determine enzyme activity. The ATP consumption of the samples containing the photoswitchable inhibitors was compared to the ATP consumption of a DMSO control to assess the degree of enzyme inhibition.
In vitro kinase assay. Stock solutions (2.0 mM) of the photoswitchable LH846 inhibitors were prepared in DMSO and thermally adapted by heating to c.a. 100 °C for 1 min. Dilutions were made in DMSO to reach 21-fold concentrated solutions of the desired concentrations to be tested in the assay. The assays were performed on white, solid-bottom 384-well plates and electronic, hand-held Gilson pipettes were used. The total volume for the reaction was 10.5 µL. All solutions were applied to the well plate in a dark room to prevent ambient-light-induced photo-isomerisation. Firstly, a solution of CK1δ and substrate peptide RKKKAEpSVASLTSQCSYSS (Anaspec Fermont, CA, USA, custom made) in a kinase assay buffer was aliquoted into the bottom of the wells (9 µL). Next, the 21-fold concentrated solutions of the compound (0.5 μL, final 4.8% DMSO) was pipetted into the bottom of the wells. Lastly, a solution of ATP in water (50 µM, 1 μL) was pipetted into the upper corners of each well (final concentration 4.8 µM). Final concentrations of CK1δ and the substrate peptide were 2 ng/µL and 50 µM, respectively. The enzymatic reaction was started by spinning down the plate (1800× g, 2 min). By employing this method, all reactions were started at the same time, minimising variance between different samples. During the assay, ‘light’ samples were irradiated with UV light (λ = 365 nm, UV lamp Spectroline, ENB-280/FE, 1 × 8 Watt) for the full duration of the assay (2 h). The wells of ‘dark’ samples were carefully covered with an aluminium sticker. After the incubation period (2 h at 30 °C), 10 μL Kinase Glo® (Promega, Madison, WI, USA) was applied into the wells and the luminescent signal was recorded by a plate reader (BioTek Synergy H1). All measurements were carried out in triplicate. Enzyme activity was determined by comparing the ATP consumption of the samples containing the LH846-analogues to that of a DMSO control, set as 100% enzyme activity.
(Kinase-Glo reads ATP consumption through a luciferase reaction.)

Data set [2] can be described thus: Reversible switching cycles in kinase assay buffer containing DTT ((photo)chemical stability). The format is physicochemical. The following applies: kinase assay buffer with 0.5 mM DTT, 365 nm / 445 nm irradiation. As for the experimental part:
(§1) Lastly, the chemical stability of the photoswitches was evaluated in the kinase assay buffer. To avoid the oxidation of the kinase substrate peptide, the buffer contains dithiothreitol (DTT) as a reducing agent. Therefore, we presumed that performing multiple switching cycles in this buffer would allow us to gain insight into both the photochemical- and chemical stability of the three photoswitches. […] We hypothesise that the instability of DK398 in the assay buffer was caused due to either poor solubility or interactions with buffer components, such as the BSA protein.
Photochemical evaluation. UV-Vis absorption spectra were recorded on an Agilent 8453 UV-Visible spectrophotometer equipped with an irradiation set-up containing a 365 and 445 nm LED. Stock solutions of DK398, DK518, and DK557 were prepared in DMSO (2.0 mM) and were diluted 100-fold in kinase assay buffer (40 mM Tris-HCl, 10 mM MgCl2, 0.5 mM DTT, 0.1 mg/mL BSA, pH 7.4, final 1% DMSO) or DMSO for spectroscopic characterisation. Reversible switching cycles were performed in a kinase assay buffer to evaluate the (photo)chemical stability. All three compounds were irradiated using UV light (λmax = 365 nm) to perform trans-to-cis isomerisation and blue light (λmax = 445 nm) for the back-reaction. The irradiation time was adjusted to the compound until the corresponding PSS was achieved.
Figure 2 (a) Structures and irradiation-dependent interconversion of the trans and cis isomers of DK398, DK518, and DK557; (b) UV-Vis absorption spectra of DK398, DK518, and DK557 in kinase assay buffer (10–20 µM, 4.8% DMSO) in the thermally adapted (all trans) and irradiated forms; (c) isomer distribution in the photostationary state (pie charts). The pink region represents the percentage of cis-isomer in the PSD as determined by ^1H-NMR (DMSO-d6). […]

Data set [3] in a line: Reductive stability (DTT), UPLC-MS after incubation in buffer. To be noted: 10 µM, 0.5 mM DTT, 10 mM MgCl2, pH 7.4, 2 h at 30 °C. The format is physicochemical. As for the experimental part: as §1
Reductive stability (DTT)
Figure S8. UV-traces (λ = 312 nm) of UPLC-MS measurements after incubation of DK518, DK398 and
DK557 in buffer (10 µM, 0.5 mM DTT, 10 mM MgCl2, pH 7.4) for 2h at 30 °C. Traces show the presence of […]

Data set [4] deals with T1, CK1δ. Also on record: method as in PMID 21954091. To be noted: parent inhibitor; read-out: IC50 of LH846 towards CK1δ; cited from earlier work.
The mark [5] stands for this setting: 'dark' (all-trans, thermally adapted) samples, 2 h at 30 °C, 4.8 µM ATP, read-out: 50 % inhibition: dark (absolute IC50).
The mark [6] stands for this setting: 'light' (cis-enriched) samples irradiated with UV light 365 nm for the full 2 h, 30 °C, 4.8 µM ATP, read-out: 50 % inhibition: light (absolute IC50).

For orientation: IC50 means the concentration at which inhibition is half-maximal.

T1 sequence (P48730 whole entry): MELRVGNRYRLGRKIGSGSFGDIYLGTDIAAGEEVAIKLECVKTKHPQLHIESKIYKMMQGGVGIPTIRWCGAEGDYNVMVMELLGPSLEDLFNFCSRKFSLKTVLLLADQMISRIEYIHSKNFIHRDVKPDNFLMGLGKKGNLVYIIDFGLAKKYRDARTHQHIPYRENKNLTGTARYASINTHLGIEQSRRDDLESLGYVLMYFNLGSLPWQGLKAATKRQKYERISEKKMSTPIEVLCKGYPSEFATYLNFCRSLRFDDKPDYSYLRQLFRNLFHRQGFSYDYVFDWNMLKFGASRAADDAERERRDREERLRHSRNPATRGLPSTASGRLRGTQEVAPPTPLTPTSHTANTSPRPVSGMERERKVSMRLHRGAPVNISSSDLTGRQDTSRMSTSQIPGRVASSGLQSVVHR

Take `Cc1cc2sc(NC(=O)Cc3ccc(/N=N/c4ccccc4)cc3)nc2cc1Cl` [DK398]: on CK1δ [1] (setting [5]), the IC50 was above 10000 nM. Also, at CK1δ [1] (setting [6]), the IC50 is around 1000 nM. In addition, at CK1δ [1], the “degree of CK1δ inhibition reached in dose-response curve” value (shortened to “degree of CK1δ inhibition reached”) is on record as “incomplete inhibition”; the “difference in activity (potency) between 'light' and 'dark' states” value (“difference in activity” for short) is around 10 fold. In addition, the “stability over multiple switching cycles” value in data set [2] is “poor stability”. The “stability against reduction by DTT” value in data set [3] was “No reduction products (hydrazine or aniline) were observed”.
In the case of `Cc1cc2sc(NC(=O)Cc3cccc(/N=N/c4ccccc4)c3)nc2cc1Cl` [DK518], the IC50 is 340 nM on CK1δ [1] (setting [5]); 350 nM on CK1δ [1] (setting [6]); around 350 nM on CK1δ [1] (both 'light' and 'dark' samples, read-out: IC50 values towards CK1δ). For the same compound, the “degree of CK1δ inhibition reached” value at CK1δ [1] is “achieved complete enzyme inhibition”. In addition, the “difference in activity” value on CK1δ [1] is on record as “completely abolished the difference in activity”. The “stability over multiple switching cycles” value in data set [2] was “excellent stability”. Moreover, the “stability against reduction by DTT” value in data set [3] is “No reduction products (hydrazine or aniline) were observed”.
On to `Cc1cc2sc(NC(=O)Cn3nc(C)c(/N=N/c4ccccc4)c3C)nc2cc1Cl` [DK557], for which the IC50 on CK1δ [1] (setting [5]) is 11600 nM. The IC50 on CK1δ [1] (setting [6]) was determined as 1200 nM. Moreover, on CK1δ [1], the “degree of CK1δ inhibition reached” value is “complete enzyme inhibition upon irradiation”; the “difference in activity” value is given as around 10 fold. Also, the “stability over multiple switching cycles” value in data set [2] is on record as “excellent stability”. Further, the “stability against reduction by DTT” value in data set [3] is reported as “No reduction products (hydrazine or aniline) were observed”.
`Cc1cc2sc(NC(=O)Cc3ccccc3)nc2cc1Cl` [LH846]: the IC50 on CK1δ [4] is 290 nM.
